From patent publication US20260167673A1, “NOVEL POLYPEPTIDE, POLYPEPTIDE DERIVATIVE AND USE THEREOF” (NANJING ANJI BIOTECHNOLOGY CO., LTD., priority 2023, published 2026)
Marks after values point to notes of the source that are not given here. Where no end group is shown, it is not given here.

Legend:
Assay type in all cases: cell-based
[1] = test system: human giant cell lung cancer cells 95-D; assay: CCK8 proliferation inhibition, 95-D; settings: 50 μM, 48 h
Method: (§1) Incubation was continued for 4 h in a cell incubator, an absorbance was measured at 450 nm, and a proliferation inhibition was calculated. Data was presented as mean±SD, and GraphPad Prism 5.0 statistical software was used. A t-test was used for comparison between two groups, while One-way Anova (Dunnett) was used for comparison among a plurality of groups.

[2] = test system: human lung adenocarcinoma cells SPC-A1; assay: CCK8 proliferation inhibition, SPC-A1; settings: SPC-A1, 50 μM, 48 h
Method: as §1

[3] = test system: human liver cancer cells HepG2; assay: CCK8 proliferation inhibition, HepG2; settings: HepG2, 50 μM, 48 h
Method: as §1

[4] = test system: human breast cancer cells SK-BR-3; assay: CCK8 proliferation inhibition, SK-BR-3; settings: SK-BR-3, 50 μM, 48 h
Method: as §1

[5] = test system: human breast cancer cells MDA-MB-231; assay: CCK8 proliferation inhibition, MDA-MB-231; settings: MDA-MB-231, 50 μM, 48 h
Method: as §1

[6] = test system: human cervical cancer epithelial cells CaSki; assay: CCK8 proliferation inhibition, CaSki; settings: 50 μM, 48 h
Method: as §1

[7] = test system: human cervical cancer cells Hela; assay: CCK8 proliferation inhibition, Hela; settings: 50 μM, 48 h
Method: as §1

[8] = test system: human ovarian cancer cells SKOV3; assay: CCK8 proliferation inhibition, SKOV3 (Example 5); settings: SKOV3, 50 μM, 48 h
Method: as §1

[9] = test system: human bladder transitional cell carcinoma cells T24; assay: CCK8 proliferation inhibition, T24; settings: T24, 50 μM, 48 h
Method: as §1

[10] = test system: human prostate cancer cells 22RV1; assay: CCK8 proliferation inhibition, 22RV1; settings: 22RV1, 50 μM, 48 h
Method: as §1

[11] = test system: human cholangiocarcinoma cells QBC939; assay: CCK8 proliferation inhibition, QBC939; settings: QBC939, 50 μM, 48 h
Method: as §1

[12] = test system: human histiocytic lymphoma cells U937; assay: CCK8 proliferation inhibition, U937; settings: U937, 50 μM, 48 h
Method: as §1

[13] = test system: human diffuse large B-cell lymphoma (DLBCL) cells WSU-DLCL2; assay: CCK8 proliferation inhibition, WSU-DLCL2; settings: WSU-DLCL2, 50 μM, 48 h
Method: as §1

[14] = test system: human acute promyelocytic leukemia cells NB4; assay: CCK8 proliferation inhibition, NB4; settings: NB4, 50 μM, 48 h
Method: as §1

[15] = test system: human chronic myeloid leukemia cells K562; assay: CCK8 proliferation inhibition, K562; settings: K562, 50 μM, 48 h
Method: as §1

[16] = test system: human cervical cancer Hela cells; assay: Transwell metastasis inhibition, Hela; settings: 50 μmol/L, 48 h
Method: (§2) Melanoma, cervical cancer, ovarian cancer, liver cancer, and lung cancer cells were seeded into transwell chambers, with 100 μL per well. Different doses of the HMMW micropeptide and the novel polypeptide HMMW15-51 were added to each chamber as a treatment group, while no drug was added to a blank group. Then, 0.6 mL of a complete culture medium containing 10% FBS was added to the lower chambers of the transwell to stimulate cell metastasis, and the cells were cultured at 5% CO2 and 37° C. for 48 h. The culture solution was discarded from the wells. The cells were fixed with methanol at room temperature for 30 min, stained with 0.1% crystal violet at room temperature for 10 min, and rinsed with clean water. The upper layer nonmetastatic cells were wiped off with a cotton swab. The cells were observed under a microscope, and four fields of view were selected to take photos and count the cells. A metastasis inhibition (MI) was calculated according to a formula: […]
(§3) where Ntest represents the number of cell metastases in the treatment group, and Ncontrol represents the number of cell metastases in the blank control group.
(§4) Data was presented as mean±SD, and GraphPad Prism 5.0 statistical software was used.

[17] = test system: human liver cancer Hep3B cells; assay: Transwell metastasis inhibition, Hep3B; settings: 50 μmol/L, 48 h
Method: as §2, §3, §4

With “MERAGVPGFSPRRSSVEAKMQSTSCSVRKSSTVTAWPAVVLLLSWGQRRGG [HMMW]” the “Inhibition (%)” value [1] was 59.757 ± 5.365 %, the OD [1] was 0.442 ± 0.059 and the “Inhibition (%)” value [2] was 49.128 ± 3.053 %. The OD [2] was 0.525 ± 0.032, the “Inhibition (%)” value [3] was 52.579 ± 2.504 % and the OD [3] was 0.509 ± 0.027. The “Inhibition (%)” value [4] was 53.710 ± 4.902 %, the OD [4] was 0.507 ± 0.054 and the “Inhibition (%)” value [5] was 65.216 ± 4.512 %. For the same sequence, the OD [5] was 0.429 ± 0.056, the “Inhibition (%)” value [6] was 53.329 ± 3.884 % and the OD [6] was 0.458 ± 0.038. The “Inhibition (%)” value [7] was 52.644 ± 4.018 %, the OD [7] was 0.493 ± 0.049 and the “Inhibition (%)” value [8] was 52.644 ± 4.018 %. The OD [8] was 0.466 ± 0.040, the “Inhibition (%)” value [9] was 51.562 ± 4.780 % and the OD [9] was 0.460 ± 0.045. For the same sequence, the “Inhibition (%)” value [10] was 50.463 ± 1.693 %, the OD [10] was 0.552 ± 0.019 and the “Inhibition (%)” value [11] was 49.490 ± 2.138 %. The OD [11] was 0.429 ± 0.018, the “Inhibition (%)” value [12] was 36.042 ± 2.134 % and the OD [12] was 0.855 ± 0.029. The “Inhibition (%)” value [13] was 44.365 ± 2.462 %, the OD [13] was 0.731 ± 0.032 and the “Inhibition (%)” value [14] was 47.692 ± 4.919 %. The OD [14] was 0.740 ± 0.070, the “Inhibition (%)” value [15] was 51.933 ± 2.838 % and the OD [15] was 0.618 ± 0.036. The “Inhibition (%)” value ([16]; Hela metastasis) was 88.80*** %, the “Number of cell metastases” value ([16]; Hela) was 115 ± 20.32 and the “Inhibition (%)” value ([17]; Hep3B metastasis) was 88.13*** %. The “Number of cell metastases” value ([17]; Hep3B) was 70 ± 75.82.
